From publication PMC9061180 (RSC Advances, 2019)
Read-outs that look alike come from different tables or passages of the source.

Legend:
Assay type in all cases: cell-based
MCF10A (normal breast) = experiment: cells; conditions: read-out: GI50 MCF10A
MCF-7 (breast carcinoma) = experiment: cells; conditions: read-out: GI50 MCF-7
[1] = tested on: Du145 (prostate carcinoma); experiment: cells; conditions: read-out: GI50 Du145
A431 (skin carcinoma) = experiment: cells; conditions: read-out: GI50 A431
[2] = tested on: A2780 (ovarian carcinoma); experiment: cells; conditions: read-out: GI50 A2780
BE2-C (neuroblastoma) = experiment: cells; conditions: read-out: GI50 BE2-C
U87 (glioblastoma) = experiment: cells; conditions: read-out: GI50 U87
HT29 (colon carcinoma) = experiment: cells; conditions: read-out: GI50 HT29
SJ-G2 (glioblastoma) = experiment: cells; conditions: read-out: GI50 SJ-G2
[3] = tested on: MIA (pancreatic carcinoma); experiment: cells; conditions: read-out: GI50 MIA
H460 (lung carcinoma) = experiment: cells; conditions: read-out: GI50 H460
[4] = tested on: SMA (spontaneous murine astrocytoma); experiment: cells; conditions: read-out: GI50 SMA
[5] = tested on: panel of eleven cancer cell lines and one normal cell line; experiment: MTT cytotoxicity, panel of eleven cancer cell lines and one normal cell line; conditions: for activity in initial screen: 25 μM drug concentration; for levels of toxicity: against HT29, U87, A2780, MIA and SMA cell lines; for GI50: read-out: average GI50
[6] = Table 5, normal breast cell line, 72 h exposure, MTT

Molecule | GI50 (MCF10A (normal breast); Homo sapiens, MCF-10A, 72 h) [nM] | GI50 (MCF-7 (breast carcinoma); Homo sapiens, MCF7, 72 h) [nM] | GI50 ([1]; Homo sapiens, DU-145, 72 h) [nM] | GI50 (A431 (skin carcinoma); Homo sapiens, A-431, 72 h) [nM] | GI50 ([2]; Homo sapiens, A2780, 72 h) [nM] | GI50 (BE2-C (neuroblastoma); Homo sapiens, BE(2)-C, 72 h) [nM] | GI50 (U87 (glioblastoma); 72 h) [nM] | GI50 (HT29 (colon carcinoma); Homo sapiens, HT-29, 72 h) [nM] | GI50 (SJ-G2 (glioblastoma); SJ-G2, 72 h) [nM] | GI50 ([3]; 72 h) [nM] | GI50 (H460 (lung carcinoma); Homo sapiens, NCI-H460, 72 h) [nM] | GI50 ([4]; Mus musculus, 72 h) [nM] | activity in initial screen [5] | levels of toxicity [5] | GI50 [5] [nM] | further results
C#CC(=O)N(c1ccccc1)C(C(=O)NC1CCCCC1)c1ccc(OC)c(OC)c1 (racemic) [Compound 21, (RS)-N-(2-(Cyclohexylamino)-1-(3,4-dimethoxyphenyl)-2-oxoethyl)-N-phenylpropiolamide] | 5100 ± 400 | 1500 ± 120 | 610 ± 250 | 1000 ± 290 | 540 ± 120 | 270 ± 29 | 730 ± 130 | 530 ± 41 | 1600 ± 180 | 440 ± 140 | 2800 ± 1100 | – | – | – | – | –
C#CC(=O)N(c1ccccc1)C(C(=O)NCc1ccccc1)c1ccccc1 (racemic) [Compound 17a, (RS)-N-(2-(Benzylamino)-2-oxo-1-phenylethyl)-N-phenylpropiolamide] | 1400 ± 400 | 1700 ± 200 | 1000 ± 10 | 970 ± 200 | 100 ± 34 | 1400 ± 300 | 130 ± 17 | 170 ± 3 | 2500 ± 100 | 150 ± 9 | 2000 ± 500 | 160 | sufficiently promising activity | sub-micro molar | 970 | –
(RS)-N-(2-(Cyclohexylamino)-2-oxo-1-phenylethyl)-N-phenylbut-2-enamide [Compound 16d] | – | – | – | – | – | – | – | – | – | – | – | – | sufficiently promising activity | – | – | GI50 (MCF10A (normal breast); [6]): 7500 ± 1800 nM; GI50 (MCF-7 (breast carcinoma); Table 5, 72 h exposure, MTT): 4600 ± 1300 nM; GI50 ([1]; Table 5, 72 h exposure, MTT): 8600 ± 2300 nM; GI50 (A431 (skin carcinoma); Table 5, 72 h exposure, MTT): 2200 ± 100 nM; GI50 ([4]; Table 5, 72 h exposure, MTT): 14000 ± 2000 nM; GI50 ([2]; Table 5, 72 h exposure, MTT): 12000 nM; GI50 (BE2-C (neuroblastoma); Table 5, 72 h exposure, MTT): 2600 ± 300 nM; GI50 (U87 (glioblastoma); Table 5, 72 h exposure, MTT): 16000 nM; GI50 (HT29 (colon carcinoma); Table 5, 72 h exposure, MTT): 15000 ± 1000 nM; GI50 ([5]; average over the cell lines of Table 5): 9400 nM; GI50 (SJ-G2 (glioblastoma); Table 5, 72 h exposure, MTT): 13000 ± 1000 nM; GI50 ([3]; Table 5, 72 h exposure, MTT): 4500 ± 300 nM; GI50 (H460 (lung carcinoma); Table 5, 72 h exposure, MTT): 13000 ± 300 nM
C#CC(=O)N(c1ccccc1)C(C(=O)NC1CCCCC1)c1cccc(OC)c1OC (racemic) [Compound 20, (RS)-N-(2-(Cyclohexylamino)-1-(2,3-dimethoxyphenyl)-2-oxoethyl)-N-phenylpropiolamide] | 7600 ± 1800 | 1800 ± 67 | 660 ± 240 | 1200 ± 410 | 490 ± 95 | 460 ± 38 | 710 ± 64 | 470 ± 120 | 1800 ± 88 | 460 ± 100 | 2300 ± 300 | – | – | – | – | –
CC(=O)N(c1ccccc1)C(C(=O)NCc1ccccc1)c1ccccc1 (racemic) [Compound 17e, (RS)-N-Benzyl-2-phenyl-2-(N-phenylacetamido)acetamide] | 15000 ± 1000 | > 50000 | > 50000 | 13000 ± 1000 | 16000 | 25000 ± 9000 | > 50000 | > 50000 | 15000 ± 4000 | 8500 ± 900 | 21000 | > 50000 | sufficiently promising activity | – | – | –
N-(2-cyclohexylamino)-1-(4-methoxyphenyl)-2-oxoethyl-N-(3,5-dimethoxyphenyl)propiolamide [Compound 1, reference compound] | – | – | – | – | – | – | – | – | – | – | – | – | – | – | – | GI50 (MCF10A (normal breast); [6]): 290 ± 30 nM; GI50 (MCF-7 (breast carcinoma); Table 5, 72 h exposure, MTT): 1700 ± 170 nM; GI50 ([1]; Table 5, 72 h exposure, MTT): 110 ± 50 nM; GI50 (A431 (skin carcinoma); Table 5, 72 h exposure, MTT): 460 ± 150 nM; GI50 ([2]; Table 5, 72 h exposure, MTT): 580 ± 510 nM; GI50 (BE2-C (neuroblastoma); Table 5, 72 h exposure, MTT): 30 ± 10 nM; GI50 (U87 (glioblastoma); Table 5, 72 h exposure, MTT): 60 ± 20 nM; GI50 (HT29 (colon carcinoma); Table 5, 72 h exposure, MTT): 70 ± 10 nM; GI50 ([5]; across the cancer cell lines evaluated): ≤ 1000 nM; GI50 (SJ-G2 (glioblastoma); Table 5, 72 h exposure, MTT): 1700 ± 260 nM; GI50 ([3]; Table 5, 72 h exposure, MTT): 60 ± 30 nM; GI50 (H460 (lung carcinoma); Table 5, 72 h exposure, MTT): 1400 ± 600 nM
C#CC(=O)N(c1ccccc1)C(C(=O)NC1CCCCC1)c1ccccc1 (racemic) [Compound 12, (RS)-N-(2-(Cyclohexylamino)-2-oxo-1-phenylethyl)-N-phenylpropiolamide] | 2900 ± 100 | 1600 ± 290 | 180 ± 10 | 1000 ± 200 | 230 ± 20 | 500 ± 200 | 190 ± 10 | 270 ± 10 | 3000 ± 100 | 250 ± 20 | 3600 ± 600 | 250 | sufficiently promising activity | sub-micro molar | 1160 | –
C#CC(=O)N(c1ccc(OC)cc1)C(C(=O)NC1CCCCC1)c1ccccc1 (racemic) [Compound 19, (RS)-N-(2-(Cyclohexylamino)-2-oxo-1-phenylethyl)-N-(4-methoxyphenyl)propiolamide] | 3300 ± 520 | 1200 ± 33 | 200 ± 69 | 590 ± 260 | 220 ± 17 | 200 ± 6.7 | 220 | 200 ± 20 | 760 ± 570 | 200 ± 20 | 2200 ± 200 | – | – | – | – | –
O=C(NC1CCCCC1)C(c1ccccc1)N(C(=O)CC(F)(F)F)c1ccccc1 (racemic) [Compound 16g, (RS)-N-(2-(Cyclohexylamino)-2-oxo-1-phenylethyl)-3,3,3-trifluoro-N-phenylpropanamide] | 5100 ± 500 | 8000 ± 2000 | 4800 ± 400 | 4300 ± 300 | 6500 ± 200 | 6900 ± 600 | 12000 ± 1000 | 5900 ± 200 | 11000 ± 1000 | 5900 ± 100 | 6000 ± 500 | 10000 ± 300 | sufficiently promising activity | – | 7200 | –
C#CC(=O)N(c1ccccc1)C(C(=O)NCC(=O)OCC)c1ccccc1 (racemic) [Compound 18a, (RS)-Ethyl (2-phenyl-2-(N-phenylpropiolamido)acetyl)glycinate] | 6600 ± 1000 | 2700 ± 130 | 320 ± 40 | 2100 ± 300 | 330 ± 110 | 1800 ± 400 | 270 ± 30 | 470 ± 90 | 3000 ± 200 | 500 ± 100 | 3000 ± 400 | 480 ± 60 | sufficiently promising activity | sub-micro molar | 1800 | –
